This is an account of results in ChEMBL document CHEMBL1145498, “A systematic interaction map of validated kinase inhibitors with Ser/Thr kinases” (Proc Natl Acad Sci U S A, 2007).

SMILES strings stand for the structures.

The target in assay [1] is Calcium/calmodulin-dependent protein kinase type II subunit beta (Homo sapiens) (UniProt Q13554).
Assay [2] has as its target Cyclin-dependent kinase 6 (Homo sapiens) (UniProt Q00534).
Assay [3] has as its target Cyclin-dependent kinase-like 1 (Homo sapiens) (UniProt Q00532).
Assay [4] has as its target Serine/threonine-protein kinase VRK2 (Homo sapiens) (UniProt Q86Y07).
For assay [5], the target named is Serine/threonine-protein kinase PAK 6 (Homo sapiens) (UniProt Q9NQU5).
In assay [6] the target is Serine/threonine-protein kinase OSR1 (Homo sapiens) (UniProt O95747).
The target in assay [7] is Mitogen-activated protein kinase 6 (Homo sapiens) (UniProt Q16659).
In assay [8] the target is Dual specificity protein kinase CLK2 (Homo sapiens) (UniProt P49760).
In assay [9] the target is Serine/threonine-protein kinase 26 (Homo sapiens) (UniProt Q9P289).
Assay [10] deals with Serine/threonine-protein kinase 16 (Homo sapiens) (UniProt O75716).
The target in assay [11] is Glycogen synthase kinase-3 beta (Homo sapiens, UniProt P49841).
Assay [12] has as its target Serine/threonine-protein kinase pim-1 (Homo sapiens) (UniProt P11309).
The target in assay [13] is Calcium/calmodulin-dependent protein kinase type II subunit alpha (Homo sapiens) (UniProt Q9UQM7).
The target in assay [14] is T1, Serine/threonine-protein kinase 17A (Homo sapiens) (UniProt Q9UEE5).
T1 sequence (whole entry): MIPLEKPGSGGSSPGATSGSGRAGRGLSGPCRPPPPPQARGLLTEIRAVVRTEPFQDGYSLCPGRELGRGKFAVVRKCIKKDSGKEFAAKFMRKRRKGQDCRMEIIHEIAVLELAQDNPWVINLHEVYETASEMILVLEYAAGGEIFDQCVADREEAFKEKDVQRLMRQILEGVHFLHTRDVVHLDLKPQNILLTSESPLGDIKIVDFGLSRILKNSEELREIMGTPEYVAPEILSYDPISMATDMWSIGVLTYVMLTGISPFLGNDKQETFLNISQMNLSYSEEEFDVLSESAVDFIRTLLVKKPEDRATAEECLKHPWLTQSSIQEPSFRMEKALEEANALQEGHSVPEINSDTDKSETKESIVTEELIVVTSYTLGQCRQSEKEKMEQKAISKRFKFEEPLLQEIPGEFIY

Assay [15] deals with T2, Mitogen-activated protein kinase kinase kinase 5 (Homo sapiens) (UniProt Q99683).
T2 sequence (whole entry): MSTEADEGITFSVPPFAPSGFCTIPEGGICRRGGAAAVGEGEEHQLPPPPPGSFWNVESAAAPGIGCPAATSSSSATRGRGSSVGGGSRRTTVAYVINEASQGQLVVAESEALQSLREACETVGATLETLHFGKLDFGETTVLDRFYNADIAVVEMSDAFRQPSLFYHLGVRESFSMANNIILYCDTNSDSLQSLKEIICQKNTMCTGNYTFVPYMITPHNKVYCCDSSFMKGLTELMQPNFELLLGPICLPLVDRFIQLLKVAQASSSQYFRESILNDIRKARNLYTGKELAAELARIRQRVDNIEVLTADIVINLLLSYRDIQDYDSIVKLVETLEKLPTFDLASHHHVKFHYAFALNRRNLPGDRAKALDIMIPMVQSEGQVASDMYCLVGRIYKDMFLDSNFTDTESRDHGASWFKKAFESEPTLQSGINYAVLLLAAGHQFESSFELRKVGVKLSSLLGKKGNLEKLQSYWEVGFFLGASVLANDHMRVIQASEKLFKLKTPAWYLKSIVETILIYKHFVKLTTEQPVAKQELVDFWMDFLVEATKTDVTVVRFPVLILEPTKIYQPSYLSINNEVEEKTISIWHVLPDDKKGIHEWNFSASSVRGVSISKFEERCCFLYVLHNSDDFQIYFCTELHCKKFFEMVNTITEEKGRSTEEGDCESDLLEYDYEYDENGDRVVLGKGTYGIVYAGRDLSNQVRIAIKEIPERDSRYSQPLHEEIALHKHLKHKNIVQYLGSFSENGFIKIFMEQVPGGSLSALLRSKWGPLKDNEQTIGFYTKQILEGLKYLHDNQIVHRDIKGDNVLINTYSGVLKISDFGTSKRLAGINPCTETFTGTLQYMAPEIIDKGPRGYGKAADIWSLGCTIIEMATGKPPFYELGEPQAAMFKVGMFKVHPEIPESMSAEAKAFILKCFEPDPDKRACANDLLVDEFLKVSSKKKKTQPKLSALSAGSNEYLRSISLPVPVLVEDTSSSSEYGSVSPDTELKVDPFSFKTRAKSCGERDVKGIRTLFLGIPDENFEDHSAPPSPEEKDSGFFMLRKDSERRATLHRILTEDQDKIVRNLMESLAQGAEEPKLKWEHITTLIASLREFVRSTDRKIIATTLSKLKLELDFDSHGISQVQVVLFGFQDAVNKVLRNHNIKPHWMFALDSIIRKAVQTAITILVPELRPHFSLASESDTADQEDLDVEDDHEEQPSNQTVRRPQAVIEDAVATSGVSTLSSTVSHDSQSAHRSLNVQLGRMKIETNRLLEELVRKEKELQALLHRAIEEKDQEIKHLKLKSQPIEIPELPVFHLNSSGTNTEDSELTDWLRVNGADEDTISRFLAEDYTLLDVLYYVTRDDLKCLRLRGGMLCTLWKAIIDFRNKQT

The target in assay [16] is Casein kinase I isoform gamma-1 (Homo sapiens) (UniProt Q9HCP0).
The target of assay [17] is Ribosomal protein S6 kinase alpha-3 (Homo sapiens) (UniProt P51812).
The target of assay [18] is TRAF2 and NCK-interacting protein kinase (Homo sapiens) (UniProt Q9UKE5).
The target of assay [19] is Serine/threonine-protein kinase pim-2 (Homo sapiens, UniProt Q9P1W9).
The target in assay [20] is Cyclin-dependent kinase 2 (Homo sapiens, UniProt P24941).
The target in assay [21] is Casein kinase I isoform gamma-2 (Homo sapiens) (UniProt P78368).

Sequence of Cyclin-dependent kinase 6 (Homo sapiens) (Q00534 whole entry): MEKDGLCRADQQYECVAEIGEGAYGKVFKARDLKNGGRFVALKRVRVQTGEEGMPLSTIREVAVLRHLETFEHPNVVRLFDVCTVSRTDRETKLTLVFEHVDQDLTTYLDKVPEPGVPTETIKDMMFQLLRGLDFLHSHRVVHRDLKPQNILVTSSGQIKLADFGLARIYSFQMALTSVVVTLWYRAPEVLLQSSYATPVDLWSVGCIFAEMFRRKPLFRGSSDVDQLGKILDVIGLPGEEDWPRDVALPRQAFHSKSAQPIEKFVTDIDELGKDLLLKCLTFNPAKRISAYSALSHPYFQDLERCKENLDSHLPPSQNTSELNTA
Sequence of Serine/threonine-protein kinase PAK 6 (Homo sapiens) (Q9NQU5 whole entry, looked up): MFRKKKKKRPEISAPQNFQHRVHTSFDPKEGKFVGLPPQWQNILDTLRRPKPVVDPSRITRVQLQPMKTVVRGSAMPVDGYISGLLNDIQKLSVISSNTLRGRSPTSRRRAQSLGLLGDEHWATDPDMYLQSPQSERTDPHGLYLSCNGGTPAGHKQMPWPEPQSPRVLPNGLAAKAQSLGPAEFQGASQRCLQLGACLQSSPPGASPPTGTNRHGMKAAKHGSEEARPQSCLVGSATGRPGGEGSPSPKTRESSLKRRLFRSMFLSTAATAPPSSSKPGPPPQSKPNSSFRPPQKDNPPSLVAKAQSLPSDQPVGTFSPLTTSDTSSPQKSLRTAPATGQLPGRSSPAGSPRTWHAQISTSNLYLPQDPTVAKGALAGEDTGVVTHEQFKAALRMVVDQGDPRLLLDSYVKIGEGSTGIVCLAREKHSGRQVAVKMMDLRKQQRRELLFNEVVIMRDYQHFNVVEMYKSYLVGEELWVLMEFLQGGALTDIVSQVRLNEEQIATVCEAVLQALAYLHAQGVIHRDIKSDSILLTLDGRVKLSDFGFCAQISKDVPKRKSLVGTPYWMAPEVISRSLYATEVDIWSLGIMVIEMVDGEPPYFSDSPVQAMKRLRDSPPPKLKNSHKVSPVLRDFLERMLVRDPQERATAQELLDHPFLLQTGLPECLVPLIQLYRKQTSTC
Sequence of Serine/threonine-protein kinase 16 (Homo sapiens) (O75716 whole entry): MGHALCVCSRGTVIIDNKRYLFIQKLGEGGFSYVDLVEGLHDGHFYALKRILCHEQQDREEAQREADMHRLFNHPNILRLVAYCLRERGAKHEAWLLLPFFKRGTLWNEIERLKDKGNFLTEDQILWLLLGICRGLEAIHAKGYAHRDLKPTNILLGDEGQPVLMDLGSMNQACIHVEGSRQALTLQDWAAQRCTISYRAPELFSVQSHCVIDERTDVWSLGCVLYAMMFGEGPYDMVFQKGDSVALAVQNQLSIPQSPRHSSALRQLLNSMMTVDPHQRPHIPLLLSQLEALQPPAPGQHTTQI
Sequence of Calcium/calmodulin-dependent protein kinase type II subunit alpha (Homo sapiens) (Q9UQM7 whole entry): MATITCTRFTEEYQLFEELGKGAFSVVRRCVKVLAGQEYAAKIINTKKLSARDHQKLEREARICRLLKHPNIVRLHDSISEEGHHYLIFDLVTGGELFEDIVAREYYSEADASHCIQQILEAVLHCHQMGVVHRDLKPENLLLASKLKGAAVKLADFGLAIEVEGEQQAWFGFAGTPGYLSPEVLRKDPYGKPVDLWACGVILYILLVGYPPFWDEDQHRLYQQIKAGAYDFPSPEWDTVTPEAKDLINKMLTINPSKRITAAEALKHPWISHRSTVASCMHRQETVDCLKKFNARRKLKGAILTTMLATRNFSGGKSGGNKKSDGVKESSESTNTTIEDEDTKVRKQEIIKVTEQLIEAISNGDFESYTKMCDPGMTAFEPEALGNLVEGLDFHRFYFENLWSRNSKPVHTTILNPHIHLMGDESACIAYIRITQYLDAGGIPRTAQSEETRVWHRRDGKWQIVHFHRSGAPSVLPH
Sequence of Serine/threonine-protein kinase pim-2 (Q9P1W9 whole entry, looked up): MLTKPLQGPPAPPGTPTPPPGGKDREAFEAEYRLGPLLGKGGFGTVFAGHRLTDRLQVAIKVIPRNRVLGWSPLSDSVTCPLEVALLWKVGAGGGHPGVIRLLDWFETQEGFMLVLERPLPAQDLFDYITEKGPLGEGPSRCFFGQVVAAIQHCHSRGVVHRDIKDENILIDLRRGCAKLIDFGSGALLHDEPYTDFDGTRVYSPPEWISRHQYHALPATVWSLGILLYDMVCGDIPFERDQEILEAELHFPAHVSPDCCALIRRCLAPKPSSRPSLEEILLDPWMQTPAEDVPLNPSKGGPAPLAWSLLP
Sequence of Casein kinase I isoform gamma-1 (Homo sapiens) (Q9HCP0 whole entry, looked up, canonical isoform): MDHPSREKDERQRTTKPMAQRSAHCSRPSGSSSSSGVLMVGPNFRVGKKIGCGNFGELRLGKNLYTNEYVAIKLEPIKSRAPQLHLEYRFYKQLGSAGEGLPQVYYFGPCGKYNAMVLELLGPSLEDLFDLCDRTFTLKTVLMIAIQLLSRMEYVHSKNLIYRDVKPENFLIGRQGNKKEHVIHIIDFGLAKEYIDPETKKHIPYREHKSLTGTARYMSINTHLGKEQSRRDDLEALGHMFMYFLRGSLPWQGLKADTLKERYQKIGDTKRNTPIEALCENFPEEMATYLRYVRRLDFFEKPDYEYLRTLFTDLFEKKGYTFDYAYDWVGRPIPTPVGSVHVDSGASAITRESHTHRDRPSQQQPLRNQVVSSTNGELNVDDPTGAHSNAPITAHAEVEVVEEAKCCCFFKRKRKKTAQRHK
Sequence of Ribosomal protein S6 kinase alpha-3 (Homo sapiens) (P51812 whole entry): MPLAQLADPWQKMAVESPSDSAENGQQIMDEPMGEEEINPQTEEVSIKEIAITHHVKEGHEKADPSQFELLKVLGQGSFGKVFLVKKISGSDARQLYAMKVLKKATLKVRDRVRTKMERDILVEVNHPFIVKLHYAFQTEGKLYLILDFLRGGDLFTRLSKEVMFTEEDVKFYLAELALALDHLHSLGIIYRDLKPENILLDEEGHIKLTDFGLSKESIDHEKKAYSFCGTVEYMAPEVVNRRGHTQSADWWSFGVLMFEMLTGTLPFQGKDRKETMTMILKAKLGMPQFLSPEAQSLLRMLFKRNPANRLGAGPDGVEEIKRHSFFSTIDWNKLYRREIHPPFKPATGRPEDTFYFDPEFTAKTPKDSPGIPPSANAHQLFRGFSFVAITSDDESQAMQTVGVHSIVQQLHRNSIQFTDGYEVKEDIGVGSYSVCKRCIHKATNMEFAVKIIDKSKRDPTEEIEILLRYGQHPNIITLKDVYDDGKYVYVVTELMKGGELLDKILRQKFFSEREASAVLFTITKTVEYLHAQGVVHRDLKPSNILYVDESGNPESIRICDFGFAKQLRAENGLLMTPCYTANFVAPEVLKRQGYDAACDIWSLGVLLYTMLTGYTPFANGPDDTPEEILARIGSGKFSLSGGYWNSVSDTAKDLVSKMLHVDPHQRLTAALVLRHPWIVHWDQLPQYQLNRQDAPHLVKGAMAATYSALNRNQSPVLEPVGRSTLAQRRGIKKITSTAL
Sequence of TRAF2 and NCK-interacting protein kinase (Homo sapiens) (Q9UKE5 whole entry, looked up): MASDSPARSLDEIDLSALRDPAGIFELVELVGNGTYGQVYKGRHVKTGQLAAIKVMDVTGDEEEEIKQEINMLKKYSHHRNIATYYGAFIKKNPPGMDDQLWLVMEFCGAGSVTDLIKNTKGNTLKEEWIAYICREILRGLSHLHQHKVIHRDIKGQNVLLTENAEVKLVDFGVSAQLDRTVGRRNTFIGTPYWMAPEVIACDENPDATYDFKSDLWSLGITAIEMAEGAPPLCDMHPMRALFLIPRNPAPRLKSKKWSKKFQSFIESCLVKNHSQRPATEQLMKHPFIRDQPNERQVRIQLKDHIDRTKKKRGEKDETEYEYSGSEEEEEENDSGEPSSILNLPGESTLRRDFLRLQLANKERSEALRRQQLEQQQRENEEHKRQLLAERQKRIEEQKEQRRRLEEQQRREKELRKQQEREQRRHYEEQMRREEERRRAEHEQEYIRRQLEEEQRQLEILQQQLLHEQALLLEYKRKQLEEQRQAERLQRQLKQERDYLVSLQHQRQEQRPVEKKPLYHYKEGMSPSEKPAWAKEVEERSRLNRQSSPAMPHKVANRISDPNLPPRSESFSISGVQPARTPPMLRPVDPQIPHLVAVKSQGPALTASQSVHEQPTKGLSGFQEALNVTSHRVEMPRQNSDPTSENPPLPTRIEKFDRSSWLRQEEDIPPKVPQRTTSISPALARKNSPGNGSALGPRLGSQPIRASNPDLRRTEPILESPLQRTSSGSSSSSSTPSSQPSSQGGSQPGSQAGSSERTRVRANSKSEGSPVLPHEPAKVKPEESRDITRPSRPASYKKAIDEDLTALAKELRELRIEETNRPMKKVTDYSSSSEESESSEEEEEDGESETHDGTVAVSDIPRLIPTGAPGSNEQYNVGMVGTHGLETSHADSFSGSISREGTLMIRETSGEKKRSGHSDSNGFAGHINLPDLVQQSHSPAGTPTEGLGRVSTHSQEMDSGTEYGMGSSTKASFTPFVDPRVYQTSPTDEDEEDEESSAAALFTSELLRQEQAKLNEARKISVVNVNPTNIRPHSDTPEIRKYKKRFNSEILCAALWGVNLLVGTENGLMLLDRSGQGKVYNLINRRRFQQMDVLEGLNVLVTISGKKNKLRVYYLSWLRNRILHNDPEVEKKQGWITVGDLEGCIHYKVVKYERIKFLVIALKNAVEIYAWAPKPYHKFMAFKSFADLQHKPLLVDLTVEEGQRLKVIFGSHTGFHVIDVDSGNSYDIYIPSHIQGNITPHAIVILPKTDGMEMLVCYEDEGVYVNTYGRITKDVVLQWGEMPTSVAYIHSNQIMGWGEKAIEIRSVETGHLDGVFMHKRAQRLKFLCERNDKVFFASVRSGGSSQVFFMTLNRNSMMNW
Sequence of Serine/threonine-protein kinase pim-1 (Homo sapiens) (P11309 whole entry, looked up): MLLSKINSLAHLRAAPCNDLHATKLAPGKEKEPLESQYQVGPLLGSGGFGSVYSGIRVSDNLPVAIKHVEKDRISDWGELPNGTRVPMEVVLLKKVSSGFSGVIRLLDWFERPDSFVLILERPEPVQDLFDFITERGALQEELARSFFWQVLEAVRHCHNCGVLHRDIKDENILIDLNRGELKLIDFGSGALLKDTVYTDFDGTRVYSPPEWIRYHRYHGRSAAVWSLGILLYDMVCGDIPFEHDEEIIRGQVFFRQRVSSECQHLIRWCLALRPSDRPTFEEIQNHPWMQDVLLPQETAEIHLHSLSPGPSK

The ΔTm is the change in melting temperature against a reference sample. As for `Cc1c2ccncc2c(C)c2c1[nH]c1ccccc12` [ELLIPTECINE], the ΔTm was 1 °C in assay [1]; 0.2 °C in assay [2]; 0.7 °C in assay [3]; -0.7 °C in [4]; -0.5 °C in [5]; 0.3 °C in [6]. Moreover, the ΔTm in [7] was 1.5 °C; in [8], 3.3 °C; in assay [9], 0.4 °C; in [10], 10.7 °C; in assay [11], 5.6 °C; in assay [12] it was 4.8 °C. The ΔTm in assay [13] was 2.2 °C; in [14], 0.8 °C; in [15] it was 0.4 °C; in assay [16] it was 0.6 °C; in assay [17], 1.8 °C; in assay [18] it was -0.2 °C. Also, the shift in melting temperature (ΔTm) turned out to be 7.1 °C in assay [19], 1.6 °C in [20] and 0.2 °C in assay [21].

Take `CC(C)(C)n1nc(-c2cccc3ccccc23)c2c(N)ncnc21`: the ΔTm in [1] was 0.2 °C; in assay [2], -0.3 °C; in [3] it was -0.5 °C; in assay [4] it was 2.8 °C; in [5], 0.3 °C; in assay [6], 1.1 °C. The ΔTm in [7] is 0 °C; in [8], 0.8 °C; in assay [9], -4.9 °C; in assay [10], 0.7 °C; in [11], 0.1 °C; in assay [12] it was -0.2 °C. Besides, the ΔTm in assay [13] came out at 0.3 °C; in [14] it was 2 °C; in [15], 0.8 °C; in assay [16], 0.1 °C; in [17], 0.3 °C; in assay [18], 4.5 °C. The values for the ΔTm in [19], in [20] and in assay [21] were -0.2 °C, 0.1 °C and 0.5 °C, respectively.

For `COc1nccc(-c2c(-c3ccc(F)cc3)ncn2[C@H]2CC[C@H](O)CC2)n1`, the ΔTm in [2] is 0.1 °C; in assay [3] it was -1 °C; in [4], 0.8 °C; in [5], -0.3 °C; in assay [6], 0.1 °C; in assay [7], 0.8 °C. Also, the ΔTm in [8] is 0.8 °C; in assay [9] it was -1.4 °C; in [10] it was -0.2 °C; in assay [11], 0.4 °C; in assay [12], -0.5 °C; in assay [13], 1.5 °C. Besides, the ΔTm was 0 °C in assay [14]; 0.9 °C in [16]; 0.2 °C in assay [17]; -0.5 °C in assay [18]; 0.5 °C in assay [19]; -0.6 °C in assay [20]. For the same compound, the ΔTm in [21] worked out at 1 °C.

For the compound `CN(C)C[C@@H]1CCn2cc(c3ccccc32)C2=C(C(=O)NC2=O)c2cn(c3ccccc23)CCO1` [RUBOXISTAURIN], the ΔTm is 0.5 °C in [1]; 0.5 °C in assay [2]; 0.3 °C in [3]; 1 °C in [4]; 0.8 °C in assay [5]; -0.5 °C in assay [6]. Also, the ΔTm in assay [7] is 0.1 °C; in [8], 4.2 °C; in assay [9], -2 °C; in assay [10], 0.8 °C; in assay [11] it was 5.9 °C; in [13], 3.1 °C. Moreover, the ΔTm is -0.2 °C in [14]; 0.1 °C in assay [15]; 0.5 °C in assay [16]; 0.9 °C in [17]; -0.3 °C in assay [18]; 2.1 °C in [19]. The ΔTm in assay [20] and in assay [21] was 0.9 °C in each case.

As for `CCN1/C(=C/C(C)=O)Sc2ccc(OC)cc21`, the ΔTm is 0.3 °C in [1]; 0.4 °C in assay [2]; 0.4 °C in assay [3]; 0.4 °C in assay [4]; -0.9 °C in assay [5]; 0.1 °C in assay [6]. Also, the ΔTm in assay [7] is 0 °C; in assay [8], 4.1 °C; in assay [9], -0.3 °C; in assay [10], 1.7 °C; in assay [11], 1.4 °C; in assay [12] it was 6.3 °C. Besides, the ΔTm in assay [13] was -0.1 °C; in [14] it was 0.4 °C; in assay [15] it was 0.4 °C; in assay [16] it was 2.5 °C; in [17], -0.6 °C; in assay [18], 0.1 °C. The thermal shift (ΔTm) came out at 3.1 °C in assay [19] and 0.1 °C in assay [20].

Turning to `CN(C)CCCn1cc(C2=C(c3c[nH]c4ccccc34)C(=O)NC2=O)c2ccccc21` [GF-109203], the ΔTm is 0.9 °C in assay [1]; 0.4 °C in assay [2]; 0.7 °C in assay [3]; 0.9 °C in [4]; 2.4 °C in assay [5]; 2.4 °C in [6]. The ΔTm in assay [7] is -0.2 °C; in assay [8], 4.1 °C; in assay [9], 3.1 °C; in assay [10] it was 2.1 °C; in assay [11], 8.7 °C; in [13], 2.4 °C. For the same compound, the ΔTm worked out at 1.3 °C in [14]; 0.9 °C in assay [15]; 1 °C in assay [16]; 0.8 °C in assay [17]; 2 °C in assay [18]; 5.2 °C in assay [19]. Moreover, the ΔTm in assay [20] is 1.7 °C; in assay [21] it was 0.5 °C.

Regarding `O=C1Cc2c([nH]c3ccc(Br)cc23)-c2ccccc2N1` [KENPAULLONE], the ΔTm in assay [1] is 0.5 °C; in assay [2], 0.7 °C; in assay [3] it was -0.1 °C; in [4], 0.2 °C; in assay [5] it was 3.7 °C; in [6] it was 1.8 °C. The ΔTm is 0.9 °C in assay [7]; 0.1 °C in assay [8]; 1.4 °C in assay [9]; 0.7 °C in assay [10]; 10.5 °C in [11]; 2.6 °C in [12]. The ΔTm in [13] came to 0 °C; in assay [14] it was 5.9 °C; in assay [15] it was 0.8 °C; in assay [16] it was 0.3 °C; in assay [18], 6.7 °C; in [19] it was 1.2 °C. In addition, the ΔTm was 3.6 °C in [20] and 0 °C in assay [21].
